What was measured:
[1] = biological target: T1, 5-hydroxytryptamine receptor 1A (Homo sapiens, UniProt P08908)
T1 sequence (P08908 whole entry): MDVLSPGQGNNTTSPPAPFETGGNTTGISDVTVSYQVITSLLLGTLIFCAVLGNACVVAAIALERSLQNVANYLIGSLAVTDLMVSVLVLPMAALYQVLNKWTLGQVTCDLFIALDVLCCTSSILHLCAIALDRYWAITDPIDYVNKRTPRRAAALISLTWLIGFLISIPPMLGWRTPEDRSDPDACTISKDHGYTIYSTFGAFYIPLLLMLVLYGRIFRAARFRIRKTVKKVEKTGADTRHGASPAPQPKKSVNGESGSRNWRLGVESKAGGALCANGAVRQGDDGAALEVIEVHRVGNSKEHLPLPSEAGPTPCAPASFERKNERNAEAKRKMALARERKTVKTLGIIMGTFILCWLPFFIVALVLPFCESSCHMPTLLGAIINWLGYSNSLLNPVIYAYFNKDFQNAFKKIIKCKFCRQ

[2] = biological target: Prostaglandin G/H synthase 1 (Homo sapiens, UniProt P23219); format: functional
[3] = biological target: T2, Estrogen receptor (Homo sapiens, UniProt P03372)
T2 sequence (P03372 whole entry): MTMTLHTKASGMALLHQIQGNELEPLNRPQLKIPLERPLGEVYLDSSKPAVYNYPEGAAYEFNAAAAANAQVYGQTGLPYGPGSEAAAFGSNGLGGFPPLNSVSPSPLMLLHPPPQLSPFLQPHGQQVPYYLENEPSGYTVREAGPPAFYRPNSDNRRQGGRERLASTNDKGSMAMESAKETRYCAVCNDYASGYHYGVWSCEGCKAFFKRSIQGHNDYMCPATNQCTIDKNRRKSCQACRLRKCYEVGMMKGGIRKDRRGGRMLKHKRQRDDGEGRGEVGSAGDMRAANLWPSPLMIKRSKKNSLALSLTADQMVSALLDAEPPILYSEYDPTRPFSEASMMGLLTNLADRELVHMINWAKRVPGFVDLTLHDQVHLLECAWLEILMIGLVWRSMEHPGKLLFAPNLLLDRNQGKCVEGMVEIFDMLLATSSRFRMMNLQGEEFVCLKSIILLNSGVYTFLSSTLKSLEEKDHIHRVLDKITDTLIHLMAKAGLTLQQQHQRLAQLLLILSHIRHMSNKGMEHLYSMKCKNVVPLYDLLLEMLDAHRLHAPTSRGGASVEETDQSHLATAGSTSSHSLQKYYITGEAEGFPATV

[4] = biological target: T3, Muscarinic acetylcholine receptor M1 (Homo sapiens, UniProt P11229); format: functional, cell-based
T3 sequence (P11229 whole entry): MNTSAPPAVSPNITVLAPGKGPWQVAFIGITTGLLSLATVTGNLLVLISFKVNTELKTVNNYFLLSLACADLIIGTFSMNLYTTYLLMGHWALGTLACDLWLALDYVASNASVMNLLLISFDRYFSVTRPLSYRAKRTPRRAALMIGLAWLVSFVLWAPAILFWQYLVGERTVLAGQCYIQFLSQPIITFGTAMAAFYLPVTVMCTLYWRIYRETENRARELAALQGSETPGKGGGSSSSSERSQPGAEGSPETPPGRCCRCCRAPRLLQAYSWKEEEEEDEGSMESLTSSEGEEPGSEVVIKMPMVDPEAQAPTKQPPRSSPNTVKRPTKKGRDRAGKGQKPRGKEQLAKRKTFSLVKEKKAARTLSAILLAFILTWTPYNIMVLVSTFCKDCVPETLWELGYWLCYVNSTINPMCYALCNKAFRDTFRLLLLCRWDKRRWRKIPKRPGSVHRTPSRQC

[5] = biological target: 5-hydroxytryptamine receptor 2A (Homo sapiens, UniProt P28223); format: functional, cell-based
[6] = biological target: T4, Alpha-2B adrenergic receptor (Homo sapiens, UniProt P18089)
T4 sequence (P18089 whole entry): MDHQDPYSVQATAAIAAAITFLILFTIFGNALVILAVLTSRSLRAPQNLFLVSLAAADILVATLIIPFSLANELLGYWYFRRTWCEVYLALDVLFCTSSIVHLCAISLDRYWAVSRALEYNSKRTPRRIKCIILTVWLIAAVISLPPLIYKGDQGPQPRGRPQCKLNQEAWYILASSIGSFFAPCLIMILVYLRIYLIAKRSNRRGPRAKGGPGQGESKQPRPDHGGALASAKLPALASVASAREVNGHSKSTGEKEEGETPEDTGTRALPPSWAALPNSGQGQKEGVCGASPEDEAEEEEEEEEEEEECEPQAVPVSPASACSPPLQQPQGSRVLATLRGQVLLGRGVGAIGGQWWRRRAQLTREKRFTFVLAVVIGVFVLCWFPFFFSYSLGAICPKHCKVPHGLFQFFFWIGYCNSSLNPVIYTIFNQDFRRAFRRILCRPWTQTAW

[7] = biological target: T5, Thromboxane A2 receptor (Homo sapiens, UniProt P21731)
T5 sequence (P21731 whole entry): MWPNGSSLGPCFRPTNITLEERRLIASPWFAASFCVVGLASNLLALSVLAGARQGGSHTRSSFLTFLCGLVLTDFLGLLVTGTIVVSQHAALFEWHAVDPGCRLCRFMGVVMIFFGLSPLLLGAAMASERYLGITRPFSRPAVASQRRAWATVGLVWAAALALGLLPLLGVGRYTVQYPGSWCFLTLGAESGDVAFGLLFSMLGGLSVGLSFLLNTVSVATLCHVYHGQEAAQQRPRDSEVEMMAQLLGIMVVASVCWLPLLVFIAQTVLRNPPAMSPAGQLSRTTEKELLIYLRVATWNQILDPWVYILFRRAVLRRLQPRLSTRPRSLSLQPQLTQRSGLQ

[8] = biological target: Kappa-type opioid receptor (Homo sapiens, UniProt P41145)
Also: assay procedure not described here.

Prostaglandin G/H synthase 1, sequence (P23219 whole entry): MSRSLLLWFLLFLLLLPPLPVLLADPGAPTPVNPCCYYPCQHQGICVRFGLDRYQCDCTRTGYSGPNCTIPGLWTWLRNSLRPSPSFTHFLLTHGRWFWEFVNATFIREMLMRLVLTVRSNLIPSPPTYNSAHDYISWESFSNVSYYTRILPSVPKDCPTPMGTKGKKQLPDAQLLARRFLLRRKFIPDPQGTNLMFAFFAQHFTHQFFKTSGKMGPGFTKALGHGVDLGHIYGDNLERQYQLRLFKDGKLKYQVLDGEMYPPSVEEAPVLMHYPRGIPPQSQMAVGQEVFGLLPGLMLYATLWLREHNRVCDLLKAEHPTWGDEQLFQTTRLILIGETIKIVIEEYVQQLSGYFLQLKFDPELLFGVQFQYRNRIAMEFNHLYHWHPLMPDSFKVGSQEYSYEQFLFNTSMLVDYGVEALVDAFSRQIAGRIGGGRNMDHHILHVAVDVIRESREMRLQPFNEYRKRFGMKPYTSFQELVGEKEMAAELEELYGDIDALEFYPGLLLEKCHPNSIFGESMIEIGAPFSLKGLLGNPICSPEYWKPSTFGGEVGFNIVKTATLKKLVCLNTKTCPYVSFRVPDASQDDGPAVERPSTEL
5-hydroxytryptamine receptor 2A, sequence (P28223 whole entry): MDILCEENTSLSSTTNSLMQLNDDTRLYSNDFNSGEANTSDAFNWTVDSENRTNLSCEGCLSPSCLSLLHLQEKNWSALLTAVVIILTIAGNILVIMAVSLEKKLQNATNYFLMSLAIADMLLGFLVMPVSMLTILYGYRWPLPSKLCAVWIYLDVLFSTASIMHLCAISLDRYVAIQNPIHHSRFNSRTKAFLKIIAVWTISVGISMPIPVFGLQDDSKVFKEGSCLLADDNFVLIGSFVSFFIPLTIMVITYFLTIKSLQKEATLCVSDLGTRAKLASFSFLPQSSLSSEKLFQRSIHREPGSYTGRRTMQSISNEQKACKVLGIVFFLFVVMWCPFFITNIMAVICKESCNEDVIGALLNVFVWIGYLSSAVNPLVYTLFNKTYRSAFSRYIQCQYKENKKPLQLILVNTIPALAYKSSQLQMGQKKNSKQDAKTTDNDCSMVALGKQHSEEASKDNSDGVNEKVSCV
Kappa-type opioid receptor, sequence (P41145 whole entry): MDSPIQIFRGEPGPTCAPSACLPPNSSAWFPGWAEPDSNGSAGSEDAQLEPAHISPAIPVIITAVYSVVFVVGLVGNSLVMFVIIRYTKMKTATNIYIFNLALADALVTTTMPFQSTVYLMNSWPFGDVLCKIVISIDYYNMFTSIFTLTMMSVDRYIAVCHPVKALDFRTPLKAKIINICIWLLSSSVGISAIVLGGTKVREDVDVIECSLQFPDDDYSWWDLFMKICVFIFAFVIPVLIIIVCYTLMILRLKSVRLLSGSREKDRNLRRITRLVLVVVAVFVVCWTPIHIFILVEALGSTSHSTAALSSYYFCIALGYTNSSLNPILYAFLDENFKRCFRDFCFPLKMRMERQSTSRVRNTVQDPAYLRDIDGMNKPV

Question: `Cc1ccc(C(C)C)c(O)c1` [THYMOL] was tested. Which AC50 [1] did it give?
Answer: > 30 µM

Question: What about the AC50 [2] of the same compound?
Answer: > 3 µM

Question: And the AC50 [3]?
Answer: > 30 µM

Question: And the AC50 [4]?
Answer: 13.9 µM

Question: With `N#Cc1ccnc(N2C(=O)CC[C@H]2C(=O)N(c2cncc(F)c2)[C@H](C(=O)NC2CC(F)(F)C2)c2ccccc2Cl)c1` [IVOSIDENIB] as the compound, how does the AC50 [1] read?
Answer: > 30 µM

Question: And the AC50 [2]?
Answer: > 30 µM

Question: And the AC50 [3]?
Answer: > 30 µM

Question: What about the AC50 [4] of the same compound?
Answer: > 30 µM

Question: `C[C@@H](CN1CC(=O)NC(=O)C1)N1CC(=O)NC(=O)C1` [DEXRAZOXANE] was tested. Which AC50 [1] did it give?
Answer: > 30 µM

Question: And the AC50 [2]?
Answer: 5.98 µM

Question: And the AC50 [3]?
Answer: > 30 µM

Question: What about the AC50 [4] of the same compound?
Answer: > 30 µM

Question: Which results are given for `N=C(N)NCC1COc2ccccc2O1` (configuration not stated) [GUANOXAN]?
Answer: AC50 [1]: 1.27 µM; AC50 [2]: > 30 µM; AC50 [3]: > 30 µM; AC50 [4]: > 30 µM

Question: Which AC50 [1] does the source give for `CC(C)(Oc1ccc(Cl)cc1)C(=O)NC(=O)NCN1CCOCC1` [PLAFIBRIDE] here?
Answer: > 30 µM

Question: And the AC50 [2]?
Answer: > 30 µM

Question: And the AC50 [3]?
Answer: > 30 µM

Question: What about the AC50 [4] of the same compound?
Answer: > 30 µM

Question: For `C[C@]12CC[C@@H]3c4ccc(OC(=O)N(CCCl)CCCl)cc4CC[C@H]3[C@@H]1CC[C@@H]2OP(=O)(O)O` [ESTRAMUSTINE PHOSPHATE], which AC50 [1] is on record?
Answer: > 30 µM

Question: What about the AC50 [2] of the same compound?
Answer: > 30 µM

Question: What about the AC50 [3] of the same compound?
Answer: 2.03 µM

Question: What about the AC50 [4] of the same compound?
Answer: > 30 µM

Question: Which results are given for `CC#CC(=O)N1CCC[C@H]1c1nc(-c2ccc(C(=O)Nc3ccccn3)cc2)c2c(N)nccn12` [ACALABRUTINIB]?
Answer: AC50 [1]: > 30 µM; AC50 [2]: > 30 µM; AC50 [3]: > 30 µM; AC50 [4]: > 30 µM

Question: For `CN1CCC(N(Cc2cccs2)c2ccccc2)CC1` [THENALIDINE], which AC50 [1] is on record?
Answer: 8.65 µM

Question: What about the AC50 [2] of the same compound?
Answer: > 30 µM

Question: What about the AC50 [3] of the same compound?
Answer: > 30 µM

Question: What about the AC50 [4] of the same compound?
Answer: 0.762 µM

Question: Which AC50 [1] does the source give for `CCCCCCO[C@@H](C)c1cccc(-c2csc(NC(=O)c3cc(Cl)c(/C=C(\C)C(=O)O)c(Cl)c3)n2)c1OC` [LUSUTROMBOPAG] here?
Answer: 6.96 µM

Question: And the AC50 [2]?
Answer: 6.42 µM

Question: And the AC50 [3]?
Answer: 2.91 µM

Question: What about the AC50 [4] of the same compound?
Answer: 16.2 µM

Question: With `OC[C@H]1NC[C@H](O)[C@@H](O)[C@H]1O` as the compound, how does the AC50 [1] read?
Answer: > 30 µM

Question: And the AC50 [2]?
Answer: > 30 µM

Question: And the AC50 [3]?
Answer: > 30 µM

Question: What about the AC50 [4] of the same compound?
Answer: > 30 µM

Question: For `CCCCCCCCCCCCCCCC(=O)OC[C@H](COP(=O)([O-])OCC[N+](C)(C)C)OC(=O)CCCCCCCCCCCCCCC` [COLFOSCERIL PALMITATE], which AC50 [1] is on record?
Answer: > 30 µM

Question: And the AC50 [2]?
Answer: > 30 µM

Question: What about the AC50 [3] of the same compound?
Answer: > 30 µM

Question: What about the AC50 [4] of the same compound?
Answer: > 30 µM

Question: `CN(C)CCN(Cc1ccccc1)c1ccccn1` [TRIPELENNAMINE] was tested. Which AC50 [5] did it give?
Answer: 7.3 µM

Question: What about the AC50 [6] of the same compound?
Answer: 11 µM

Question: And the AC50 [7]?
Answer: > 10 µM

Question: What about the AC50 [1] of the same compound?
Answer: > 30 µM

Question: What about the AC50 [2] of the same compound?
Answer: > 30 µM

Question: What about the AC50 [3] of the same compound?
Answer: > 30 µM

Question: And the AC50 [4]?
Answer: > 30 µM

Question: And the AC50 [8]?
Answer: 6.25 µM

Question: `CCCCCCCC/C=C\CCCCCCCC(=O)O` [OLEIC ACID] was tested. Which AC50 [1] did it give?
Answer: > 30 µM

Question: And the AC50 [2]?
Answer: 3.54 µM

Question: And the AC50 [3]?
Answer: > 30 µM

Question: And the AC50 [4]?
Answer: 13.2 µM

Question: How did the AC50 [1] turn out when `NC(=O)C1(N2CCCCC2)CCN(CCCC(=O)c2ccc(F)cc2)CC1` [PIPAMPERONE] was run?
Answer: 11.5 µM

Question: And the AC50 [2]?
Answer: > 30 µM

Question: What about the AC50 [3] of the same compound?
Answer: > 30 µM

Question: And the AC50 [4]?
Answer: > 30 µM

Question: `Cc1cc(C)cc(OCC2CNC(=O)O2)c1` (configuration not stated) [METAXALONE] was tested. Which AC50 [1] did it give?
Answer: > 30 µM

Question: What about the AC50 [2] of the same compound?
Answer: > 30 µM

Question: And the AC50 [3]?
Answer: > 30 µM

Question: And the AC50 [4]?
Answer: > 30 µM

Question: Which AC50 [1] does the source give for `CC(C)NC[C@H](O)COc1ccc(O)cc1` [PRENALTEROL] here?
Answer: > 30 µM

Question: And the AC50 [2]?
Answer: 5.86 µM

Question: What about the AC50 [3] of the same compound?
Answer: > 30 µM

Question: What about the AC50 [4] of the same compound?
Answer: > 30 µM

Question: What does the source list for `CN1CCN(C(c2ccccc2)c2ccc(Cl)cc2)CC1` (configuration not stated) [CHLORCYCLIZINE]?
Answer: AC50 [1]: 13.9 µM; AC50 [2]: > 30 µM; AC50 [3]: > 30 µM; AC50 [4]: 0.691 µM
